Reference: ChEMBL document CHEMBL3301458, “MMV Malaria Box hERG screening”
Activity calls are given as the source filed them. The rule behind the calls is not given here.

Legend:
hERG (Kv11.1, KCNH2) [1] = molecular target: T1, hERG (Kv11.1, KCNH2) (Homo sapiens, UniProt Q12809); test: in vitro
Description: MMV: Malaria Box compounds were tested for inhibition of the human ether a go-go related gene (hERG), Kv11.1 channel, using IonWorks 384-well patch clamp electrophysiology at 1.1uM (3 independent assay plates up to 12 cells per concentration).

hERG (Kv11.1, KCNH2) [2] = molecular target: T1, hERG (Kv11.1, KCNH2); test: in vitro; remark: listed apart in the source
Description: MMV: Malaria Box compounds were tested for inhibition of the human ether a go-go related gene (hERG), Kv11.1 channel, using IonWorks 384-well patch clamp electrophysiology at 11.1uM (3 independent assay plates up to 12 cells per concentration).

T1 sequence (Q12809 whole entry): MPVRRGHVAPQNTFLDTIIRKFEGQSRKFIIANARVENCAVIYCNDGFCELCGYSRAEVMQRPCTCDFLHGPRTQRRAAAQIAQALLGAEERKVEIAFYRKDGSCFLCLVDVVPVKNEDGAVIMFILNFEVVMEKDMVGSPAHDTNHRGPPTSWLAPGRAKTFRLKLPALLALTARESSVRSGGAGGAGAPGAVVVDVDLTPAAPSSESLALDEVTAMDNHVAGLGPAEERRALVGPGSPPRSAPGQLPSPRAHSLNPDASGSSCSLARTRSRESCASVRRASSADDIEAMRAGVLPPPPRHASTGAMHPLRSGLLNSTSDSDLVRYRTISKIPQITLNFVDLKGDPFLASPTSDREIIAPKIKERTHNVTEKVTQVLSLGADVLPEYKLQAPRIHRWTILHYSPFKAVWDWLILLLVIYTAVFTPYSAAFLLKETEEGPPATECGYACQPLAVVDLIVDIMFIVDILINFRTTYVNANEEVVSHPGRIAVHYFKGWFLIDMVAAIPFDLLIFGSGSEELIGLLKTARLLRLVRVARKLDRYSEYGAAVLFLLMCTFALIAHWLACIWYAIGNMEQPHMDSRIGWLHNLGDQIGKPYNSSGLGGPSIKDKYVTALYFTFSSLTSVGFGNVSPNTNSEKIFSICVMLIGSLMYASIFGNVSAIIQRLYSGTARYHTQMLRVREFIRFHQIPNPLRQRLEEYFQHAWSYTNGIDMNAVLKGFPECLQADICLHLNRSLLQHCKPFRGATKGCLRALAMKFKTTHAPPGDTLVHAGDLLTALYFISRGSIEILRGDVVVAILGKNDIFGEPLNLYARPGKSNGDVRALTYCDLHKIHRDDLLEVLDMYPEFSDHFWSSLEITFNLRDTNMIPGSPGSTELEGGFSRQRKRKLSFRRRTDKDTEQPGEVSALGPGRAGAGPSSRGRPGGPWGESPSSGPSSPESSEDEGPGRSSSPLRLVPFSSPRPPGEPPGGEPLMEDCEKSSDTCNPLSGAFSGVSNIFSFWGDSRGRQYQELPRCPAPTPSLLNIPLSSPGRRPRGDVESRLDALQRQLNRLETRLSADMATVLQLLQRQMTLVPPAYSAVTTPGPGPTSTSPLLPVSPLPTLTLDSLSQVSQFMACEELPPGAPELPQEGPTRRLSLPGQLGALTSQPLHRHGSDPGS

Compound | inhibition at 1.1 µM (hERG (Kv11.1, KCNH2) [1]) | inhibition at 11.1 µM (hERG (Kv11.1, KCNH2) [2])
COc1ccc(Nc2nc(N/N=C/c3ccc(O)cc3)nc(Nc3ccc([N+](=O)[O-])cc3)n2)cc1 | 17% | 70% (active)
COc1ccc(C2c3ccc4ccccc4c3Oc3ncn(CCCN(C)C)c(=N)c32)cc1 (stereo not drawn) | 32% | 86% (active)
CSC1=NC(=Nc2c(C)cccc2C)C2(CCC(C(C)(C)C)CC2)N1c1ccc(Cl)cc1 (stereo not drawn) | -5% | 5% (inactive)
COC(=O)c1ccc(Cl)c2c1C1C=CCC1C(c1cccc3ccccc13)N2 (stereo not drawn) | 10% | 110% (active)
COc1ccc(C2c3ccc4ccccc4c3Oc3ncn(CCCn4ccnc4)c(=N)c32)cc1OC (stereo not drawn) | 23% | 25%
CN(N=O)C1=C(NC2CCCCC2)C(=O)c2ccccc2C1=O | -2% | 70% (active)
Oc1ccccc1CN1CCC2(CCCN(Cc3ccccc3F)C2)C1 (stereo not drawn) | 1% | 59% (active)
CCOC(=O)C1=C(C)N=c2sc(=Cc3ccccc3O)c(=O)n2C1c1ccc(OC)c2ccccc12 (stereo not drawn) | 13% | 2% (inactive)
CCOc1ccc(N2C(N)=NC(N)=NC2(C)C)cc1 | 12% | 6% (inactive)
CCCCCCc1cc2cc(-c3csc(C=Cc4ccccc4)n3)c(=O)oc2cc1O | 81% | 93%
O=c1nc(C=Cc2ccc(Br)cc2)oc2ccccc12 | 8% | 16% (inactive)
CC(=O)c1ccc(NC(=O)CSc2nc(-c3ccccc3Cl)ns2)cc1 | -6% | 7% (inactive)
O=C(NC1CCCCC1)C(c1cccs1)N(CCc1ccccc1)C(=O)c1ccco1 (stereo not drawn) | 13% | 53% (active)
O=[N+]([O-])c1ccc(C=NNc2nc3ccccc3[nH]2)cc1 | 15% | 44%
O=C(NC(c1ccccc1)c1ccc2cccnc2c1O)c1ccccc1 (stereo not drawn) | 1% | 17% (inactive)
COCCNC(=O)c1ccc(OC2CCN(Cc3ccc(F)c(F)c3)CC2)c(Cl)c1 | 7% | 68% (active)
COc1ccc(C2=C(c3ccc(OC)cc3)C3(c4ccccc4)C(=O)C2(c2ccccc2)C2C(=O)N(c4ccc(C)cc4)C(=O)C23)cc1 (stereo not drawn) | -8% | 6% (inactive)
CCOC(=O)C1=C(c2ccccc2)N=c2sc(=Cc3cc(C)n(-c4ccc(F)cc4)c3C)c(=O)n2C1c1cccc(OC)c1OC (stereo not drawn) | 3% | 11% (inactive)
O=C(CCc1ccco1)NC1CCN(CC2(c3ccc(Cl)cc3)CCC2)CC1 | 10% | 65% (active)
COc1cccc(C=Cc2nc(=O)c3ccccc3o2)c1OC | -3% | -4% (inactive)
COc1ccc(CCn2c(=N)c(C(=O)NCc3cccnc3)cc3c(=O)n4cccc(C)c4nc32)cc1 | 19% | 14% (inactive)
COCCN(C(=O)Cc1cccs1)C(C(=O)NCc1ccc(OC)cc1)c1ccc(C(C)C)cc1 (stereo not drawn) | 11% | 52% (active)

Compound | inhibition at 1.1 µM (hERG (Kv11.1, KCNH2) [1]) | inhibition at 11.1 µM (hERG (Kv11.1, KCNH2) [2])
COc1ccc(C=C2SC(=N)N(c3ccccc3OC)C2=O)cc1 | 7% | 43%
CCOC(=O)c1c(C)n(-c2ccc(Cl)cc2)c2ccc(OC(=O)C=Cc3ccccc3)cc12 | 2% | 9% (inactive)
CN(C)c1ccc(-c2nc3cc(N)ccc3[nH]2)cc1 | 14% | 36%
Cc1ccc2cc3c(N)c4c(C)ccc(C)c4nc3nc2c1 | 16% | 60% (active)
COc1ccccc1C(=O)ON=C(N)Cc1cccc2ccccc12 | 2% | 34%
CCCC(c1nnnn1C1CCCCC1)N1CCN(C(=O)c2ccco2)CC1 (stereo not drawn) | 3% | 52% (active)
COc1cc(C(=O)ON=C(N)Cc2cccc3ccccc23)cc(OC)c1OC | 26% | 89% (active)
Cc1ccc(CN2CCC(C(=O)Nc3ccc(-c4cc5ccccc5[nH]4)cc3)CC2)o1 | 9% | 88% (active)
Cc1cc(C=C2SC(=Nc3ccccc3)N(C3CCCC3)C2=O)c(C)n1-c1ccc(Cl)cc1 | 5% | -5% (inactive)
CCn1c(SCC(=O)Nc2cc(C(F)(F)F)ccc2Cl)nc2ccccc2c1=O | -1% | 34%
CC(C)(C)c1ccc(C(=O)Nc2c3c(nn2-c2cccc(Cl)c2)CSC3)cc1 | 4% | 0% (inactive)
COc1ccc(C2N(C)c3ccccc3N2C)cc1 | -13% | -5% (inactive)
CCOC(=O)C1(Cc2ccccc2)CCN(Cc2cccc(OC)c2O)CC1 | 18% | 80% (active)
CN(C)c1ccc(N2C(N)=NC(N)=NC2(C)C)cc1 | 10% | 11% (inactive)
CCCc1c(C)nc2ccc(Br)cc2c1O | 1% | 2% (inactive)
CCCc1c(C)nc2ccccc2c1O | -17% | 7% (inactive)
CC1=C(CC(=O)c2cccc([N+](=O)[O-])c2)C(=O)c2ccccc2C1=O | 9% | 17% (inactive)
CCCCCCc1cc2cc(-c3nc4ccccc4[nH]3)c(=Nc3ccccc3C)oc2cc1O | 2% | -1% (inactive)
C=C(C)CCC(C)N1CCC(N2CCC(C(=O)NCCc3ccccc3)CC2)CC1 (stereo not drawn) | 8% | 71% (active)
Nc1ccn([C@@H]2O[C@H](CO)[C@@H](O)[C@H]2O)c(=O)n1 [CYTIDINE] | 0% | 8% (inactive)
O=C(Nc1cccc(C2=NCCN2)c1)Nc1cccc(C2=NCCN2)c1 [IMIDOCARB] | 59% | 110%
CN(C)c1ccc(C(O)(c2ccc(N(C)C)cc2)c2ccc(N(C)C)cc2)cc1 [METHYLROSANILINE] | 48% | 103% (active)
